Several values for one entry are separate records, joined by “and”; a condition that tells them apart may be missing. Identical values can stand only once.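 Assay format: 96-well plates, 48-hour exposure. Abbreviation: GI50, concentration required for 50% inhibition of growth. The concentration for full growth arrest is given as TGI.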
Columns and labels:
Experiment in all cases: NCI-60 cell line screen, 48 h
HCT-15 colon = tested on: HCT-15 colon
K-562 leukemia = tested on: K-562 leukemia
SF-268 CNS = tested on: SF-268 CNS
OVCAR-3 ovarian = tested on: OVCAR-3 ovarian
UACC-62 melanoma = tested on: UACC-62 melanoma
TK-10 renal = tested on: TK-10 renal
SK-MEL-28 melanoma = tested on: SK-MEL-28 melanoma
NCI-H522 lung = tested on: NCI-H522 lung
RPMI-8226 leukemia = tested on: RPMI-8226 leukemia
SNB-19 CNS = tested on: SNB-19 CNS

COc1ccc2nc(C3=CN(C4OC(CO)C(O)C(O)C4O)C4C=CC=CC34)sc2c1 (centres undefined)
GI50 (HCT-15 colon): 32.4 µM
TGI (HCT-15 colon): > 100 µM
GI50 (K-562 leukemia): 28.5 µM
TGI (K-562 leukemia): 87.7 µM
GI50 (SF-268 CNS): > 100 µM
TGI (SF-268 CNS): > 100 µM
GI50 (OVCAR-3 ovarian): 87.5 µM
TGI (OVCAR-3 ovarian): > 100 µM
GI50 (UACC-62 melanoma): 22.2 µM
TGI (UACC-62 melanoma): 67.6 µM
GI50 (TK-10 renal): 27.3 µM
TGI (TK-10 renal): 51.5 µM
GI50 (SK-MEL-28 melanoma): > 100 µM
TGI (SK-MEL-28 melanoma): > 100 µM
GI50 (NCI-H522 lung): 24 µM
TGI (NCI-H522 lung): 76.5 µM
GI50 (RPMI-8226 leukemia): 40.3 µM
TGI (RPMI-8226 leukemia): > 100 µM
GI50 (SNB-19 CNS): 46.8 µM
TGI (SNB-19 CNS): > 100 µM

C=C(CN(CCN1CCOCC1)CC(=C)c1ccc(C(=O)Nc2ccccc2N)cc1)c1ccc(C(=O)Nc2ccccc2N)cc1
GI50 (HCT-15 colon): 10.5 µM
TGI (HCT-15 colon): 43.9 µM
GI50 (K-562 leukemia): 28.1 µM
TGI (K-562 leukemia): > 50 µM
GI50 (SF-268 CNS): 8.17 µM
TGI (SF-268 CNS): 25 µM
GI50 (OVCAR-3 ovarian): 10.1 µM
TGI (OVCAR-3 ovarian): 39.8 µM
GI50 (UACC-62 melanoma): 2.48 µM
TGI (UACC-62 melanoma): 10.6 µM
GI50 (TK-10 renal): 4.44 µM
TGI (TK-10 renal): 12 µM
GI50 (SK-MEL-28 melanoma): 6.86 µM
TGI (SK-MEL-28 melanoma): 16.2 µM
GI50 (NCI-H522 lung): 2.62 µM
TGI (NCI-H522 lung): 28.9 µM
GI50 (RPMI-8226 leukemia): 2.68 µM
TGI (RPMI-8226 leukemia): > 50 µM
GI50 (SNB-19 CNS): 9.18 µM
TGI (SNB-19 CNS): 33.4 µM

CO[C@@]12[C@H](COC(N)=O)C3=C(C(=O)C(C)=C(N)C3=O)N1C[C@@H]1N[C@@H]12
GI50 (HCT-15 colon): 1.92 µM and 1.67 µM
TGI (HCT-15 colon): 10.4 µM and 16.4 µM and 43.4 µM
GI50 (K-562 leukemia): 1.52 µM
TGI (K-562 leukemia): 19.6 µM and 15.6 µM and > 100 µM
GI50 (OVCAR-3 ovarian): 5.79 µM and 3.66 µM
TGI (OVCAR-3 ovarian): 8.8 µM and 14.4 µM and 34.4 µM
GI50 (UACC-62 melanoma): 0.952 µM
TGI (UACC-62 melanoma): 2.64 µM and 7.74 µM and 2.19 µM
GI50 (TK-10 renal): 2.63 µM
GI50 (SK-MEL-28 melanoma): 2.18 µM
TGI (SK-MEL-28 melanoma): 7.12 µM and 14.9 µM
GI50 (NCI-H522 lung): 1.1 µM and 1.18 µM
TGI (NCI-H522 lung): 3.85 µM and 4.17 µM and 8.07 µM
GI50 (RPMI-8226 leukemia): 2.03 µM and 1.88 µM
TGI (RPMI-8226 leukemia): 19.2 µM and 14.2 µM and 15.5 µM

O/N=C1/C(=C/c2ccccc2)CCCC1C(NO)c1ccccc1 (centres undefined)
TGI (HCT-15 colon): > 100 µM
TGI (K-562 leukemia): > 100 µM
TGI (SF-268 CNS): > 100 µM
TGI (OVCAR-3 ovarian): > 100 µM
TGI (UACC-62 melanoma): > 100 µM
TGI (TK-10 renal): > 100 µM
TGI (SK-MEL-28 melanoma): > 100 µM
TGI (NCI-H522 lung): > 100 µM
TGI (RPMI-8226 leukemia): > 100 µM
TGI (SNB-19 CNS): > 100 µM

CN(C(=O)C1CC1)C1C2CN3CCC(O2)C13 (centres undefined)
TGI (HCT-15 colon): > 100 µM
TGI (K-562 leukemia): > 100 µM
TGI (SF-268 CNS): > 100 µM
TGI (OVCAR-3 ovarian): > 100 µM
TGI (UACC-62 melanoma): > 100 µM
TGI (TK-10 renal): > 100 µM
TGI (SK-MEL-28 melanoma): > 100 µM
TGI (NCI-H522 lung): > 100 µM
TGI (RPMI-8226 leukemia): > 100 µM
TGI (SNB-19 CNS): > 100 µM

Cc1cc(S(=O)(=O)Nc2nc3ccsc3c(=O)n2Cc2ccccc2)c(S)cc1Cl
GI50 (HCT-15 colon): 74.5 µM
TGI (HCT-15 colon): > 100 µM
GI50 (K-562 leukemia): 67.9 µM
TGI (K-562 leukemia): > 100 µM
GI50 (SF-268 CNS): 30.6 µM
TGI (SF-268 CNS): > 100 µM
GI50 (OVCAR-3 ovarian): 24.3 µM
TGI (OVCAR-3 ovarian): 53 µM
GI50 (UACC-62 melanoma): 21.5 µM
TGI (UACC-62 melanoma): 44.4 µM
GI50 (TK-10 renal): 29.7 µM
TGI (TK-10 renal): 91.1 µM
GI50 (SK-MEL-28 melanoma): 25 µM
TGI (SK-MEL-28 melanoma): 57.2 µM
GI50 (NCI-H522 lung): 37 µM
TGI (NCI-H522 lung): > 100 µM
GI50 (RPMI-8226 leukemia): 33.4 µM
TGI (RPMI-8226 leukemia): > 100 µM
GI50 (SNB-19 CNS): 32.4 µM
TGI (SNB-19 CNS): > 100 µM

O=C1C(Nc2cccc(O)c2)=C(Sc2ccc(Cl)cc2)C(=O)N1Cc1ccccc1
GI50 (HCT-15 colon): 10.2 µM
TGI (HCT-15 colon): 33.9 µM
GI50 (K-562 leukemia): 3.81 µM
TGI (K-562 leukemia): 29.6 µM
GI50 (SF-268 CNS): 8.73 µM
TGI (SF-268 CNS): 44.6 µM
GI50 (OVCAR-3 ovarian): 10.6 µM
TGI (OVCAR-3 ovarian): 28.2 µM
GI50 (UACC-62 melanoma): 10.4 µM
TGI (UACC-62 melanoma): 27.2 µM
GI50 (TK-10 renal): 16.7 µM
TGI (TK-10 renal): 31.8 µM
GI50 (SK-MEL-28 melanoma): 11 µM
TGI (SK-MEL-28 melanoma): 40.9 µM
GI50 (NCI-H522 lung): 21.3 µM
TGI (NCI-H522 lung): > 100 µM
GI50 (RPMI-8226 leukemia): 2.23 µM
TGI (RPMI-8226 leukemia): 7.42 µM
GI50 (SNB-19 CNS): 25.1 µM
TGI (SNB-19 CNS): > 100 µM

C#CCOc1cccc(Nc2ncnc3c2ncn3C2CCN(C(=O)CCl)C2)c1 (centres undefined)
GI50 (HCT-15 colon): 16.5 µM
TGI (HCT-15 colon): 39.6 µM
GI50 (K-562 leukemia): 25.7 µM
TGI (K-562 leukemia): > 100 µM
GI50 (SF-268 CNS): 17.7 µM
TGI (SF-268 CNS): 38.2 µM
GI50 (OVCAR-3 ovarian): 17.2 µM
TGI (OVCAR-3 ovarian): 31.4 µM
GI50 (UACC-62 melanoma): 18.1 µM
TGI (UACC-62 melanoma): 35.4 µM
GI50 (TK-10 renal): 17.1 µM
TGI (TK-10 renal): 31.7 µM
GI50 (SK-MEL-28 melanoma): 23 µM
TGI (SK-MEL-28 melanoma): 53.9 µM
GI50 (NCI-H522 lung): 5.02 µM
TGI (NCI-H522 lung): 19.7 µM
GI50 (RPMI-8226 leukemia): 21 µM
TGI (RPMI-8226 leukemia): 44.2 µM
GI50 (SNB-19 CNS): 35.1 µM
TGI (SNB-19 CNS): > 100 µM

CCCCCC/C=C/CCCCCCCc1cccc(O)c1C(=O)O
TGI (HCT-15 colon): > 100 µM
TGI (K-562 leukemia): > 100 µM
TGI (SF-268 CNS): > 100 µM
TGI (OVCAR-3 ovarian): > 100 µM
TGI (UACC-62 melanoma): > 100 µM
TGI (TK-10 renal): > 100 µM
TGI (SK-MEL-28 melanoma): > 100 µM
TGI (NCI-H522 lung): > 100 µM
TGI (RPMI-8226 leukemia): > 100 µM
TGI (SNB-19 CNS): > 100 µM

CCC[CH2][Sn]1([CH2]CCC)[O]CC([CH2][Sn]([c]2ccccc2)([c]2ccccc2)[c]2ccccc2)[O]1 (centres undefined)
GI50 (HCT-15 colon): 13.2 µM
TGI (HCT-15 colon): 26.4 µM
GI50 (K-562 leukemia): 2.98 µM
TGI (K-562 leukemia): 13.6 µM
GI50 (SF-268 CNS): 6.79 µM
TGI (SF-268 CNS): 19 µM
GI50 (OVCAR-3 ovarian): 14.9 µM
TGI (OVCAR-3 ovarian): 29.9 µM
GI50 (UACC-62 melanoma): 10.6 µM
TGI (UACC-62 melanoma): 22.6 µM
GI50 (TK-10 renal): 13.8 µM
TGI (TK-10 renal): 27 µM
GI50 (SK-MEL-28 melanoma): 5.95 µM
TGI (SK-MEL-28 melanoma): 20.2 µM
GI50 (NCI-H522 lung): 1.4 µM
TGI (NCI-H522 lung): 3.37 µM
GI50 (RPMI-8226 leukemia): 2.85 µM
TGI (RPMI-8226 leukemia): 18.7 µM
GI50 (SNB-19 CNS): 15.1 µM
TGI (SNB-19 CNS): 28.6 µM

CC(=O)[CH-]C(=O)c1ccccc1.CC(=O)[CH-]C(=O)c1ccccc1.CC12CC3(C)CC(C)(C1)CC([O-])(C2)C3.CC[O-].[Ti+4]
GI50 (K-562 leukemia): 34.4 µM
TGI (K-562 leukemia): > 100 µM
GI50 (SF-268 CNS): 18.6 µM
TGI (SF-268 CNS): 45.4 µM
GI50 (OVCAR-3 ovarian): 25.6 µM
TGI (OVCAR-3 ovarian): > 100 µM
GI50 (UACC-62 melanoma): 18.5 µM
TGI (UACC-62 melanoma): 45.2 µM
GI50 (TK-10 renal): 26.7 µM
TGI (TK-10 renal): 62.1 µM
GI50 (SK-MEL-28 melanoma): 17 µM
TGI (SK-MEL-28 melanoma): 38.2 µM
GI50 (NCI-H522 lung): 21.2 µM
TGI (NCI-H522 lung): 44.6 µM
GI50 (RPMI-8226 leukemia): 8.54 µM
TGI (RPMI-8226 leukemia): 95.5 µM
GI50 (SNB-19 CNS): 20.9 µM
TGI (SNB-19 CNS): 45.2 µM

C=CC1=C(C)C(Cc2[nH]c(/C=c3\[nH]/c(=C/C4=NC(=O)C(C)/C4=C\C)c(C)c3CCC(=O)O)c(CCC(=O)OC)c2C)NC1=O (centres undefined)
GI50 (HCT-15 colon): 21.6 µM
TGI (HCT-15 colon): 53.9 µM
GI50 (K-562 leukemia): 25.7 µM
TGI (K-562 leukemia): 61.9 µM
GI50 (SF-268 CNS): 21.2 µM
TGI (SF-268 CNS): 59.5 µM
GI50 (OVCAR-3 ovarian): 20.1 µM
TGI (OVCAR-3 ovarian): 39.4 µM
GI50 (UACC-62 melanoma): 18.7 µM
TGI (UACC-62 melanoma): 35.9 µM
GI50 (TK-10 renal): 46.4 µM
TGI (TK-10 renal): > 100 µM
GI50 (SK-MEL-28 melanoma): 14.8 µM
TGI (SK-MEL-28 melanoma): 31.9 µM
GI50 (NCI-H522 lung): 17.7 µM
TGI (NCI-H522 lung): 32 µM
GI50 (RPMI-8226 leukemia): 23.9 µM
TGI (RPMI-8226 leukemia): 59.8 µM

CCCCCC/C=C\CCCCCCCCCc1c(O)c(OC)cc(O)c1CN(C)C
TGI (HCT-15 colon): 10.8 µM
TGI (K-562 leukemia): 4.49 µM
TGI (OVCAR-3 ovarian): 19 µM
TGI (UACC-62 melanoma): 23.3 µM
TGI (TK-10 renal): 28.8 µM
TGI (SK-MEL-28 melanoma): 28.2 µM
TGI (NCI-H522 lung): 3.25 µM
TGI (RPMI-8226 leukemia): 7.62 µM
TGI (SNB-19 CNS): 26.5 µM

O=C(O)CCc1nc(-c2ccccc2)c(-c2ccccc2)o1
TGI (HCT-15 colon): > 100 µM
TGI (K-562 leukemia): > 100 µM
TGI (OVCAR-3 ovarian): > 100 µM
TGI (UACC-62 melanoma): > 100 µM
TGI (TK-10 renal): > 100 µM
TGI (SK-MEL-28 melanoma): > 100 µM
TGI (NCI-H522 lung): > 100 µM
TGI (RPMI-8226 leukemia): > 100 µM
TGI (SNB-19 CNS): > 100 µM
